Test results published in ChEMBL document CHEMBL3792367, “Synthesis and molecular modeling of antimicrobial active fluoroquinolone-pyrazine conjugates with amino acid linkers” (2016).
Converted amounts (≈) assume the structure as drawn.

Tests used:
Salmonella typhi = assay: Antibacterial activity against Salmonella typhi ATCC 19430 after 18 hrs by agar dilution method; format: functional, Salmonella enterica subsp. enterica serovar Typhi; details: Salmonella enterica, ATCC 19430, 18 h
Staphylococcus aureus = assay: Antibacterial activity against Staphylococcus aureus ATCC 25923 after 18 hrs by agar dilution method; format: functional; details: ATCC 25923, 18 h
Streptococcus pyogenes = assay: Antibacterial activity against Streptococcus pyogenes ATCC 19615 after 18 hrs by agar dilution method; format: functional; details: ATCC 19615, 18 h
Pseudomonas aeruginosa = assay: Antibacterial activity against Pseudomonas aeruginosa ATCC 27853 after 18 hrs by agar dilution method; format: functional; details: ATCC 27853, 18 h

SMILES | MIC (Salmonella typhi) | MIC (Staphylococcus aureus) | MIC (Streptococcus pyogenes) | MIC (Pseudomonas aeruginosa)
O=C(NCCCC(=O)N1CCN(c2cc3c(cc2F)c(=O)c(C(=O)O)cn3C2CC2)CC1)c1cnccn1 | 2390 µM (≈ 1250 µg/mL) | 0.0746 µM (≈ 0.039 µg/mL) | 149 µM (≈ 78 µg/mL) | 597 µM (≈ 312 µg/mL)
C[C@H](NC(=O)c1cnccn1)C(=O)N1CCN(c2cc3c(cc2F)c(=O)c(C(=O)O)cn3C2CC2)CC1 | 2460 µM (≈ 1250 µg/mL) | 2.46 µM (≈ 1.25 µg/mL) | 2460 µM (≈ 1250 µg/mL) | 2460 µM (≈ 1250 µg/mL)
CCn1cc(C(=O)O)c(=O)c2cc(F)c(N3CCN(C(=O)CNC(=O)c4cnccn4)CC3)cc21 | 1300 µM (≈ 625 µg/mL) | 0.648 µM (≈ 0.313 µg/mL) | 1300 µM (≈ 625 µg/mL) | 2490 µM (≈ 1200 µg/mL)
CCn1cc(C(=O)O)c(=O)c2cc(F)c(N3CCN(C(=O)CCNC(=O)c4cnccn4)CC3)cc21 | 2520 µM (≈ 1250 µg/mL) | 0.628 µM (≈ 0.312 µg/mL) | 1260 µM (≈ 625 µg/mL) | 2520 µM (≈ 1250 µg/mL)
CCn1cc(C(=O)O)c(=O)c2cc(F)c(N3CCN(C(=O)CCCNC(=O)c4cnccn4)CC3)cc21 | 76.4 µM (≈ 39 µg/mL) | 2.45 µM (≈ 1.25 µg/mL) | 2450 µM (≈ 1250 µg/mL) | 2450 µM (≈ 1250 µg/mL)
CCn1cc(C(=O)O)c(=O)c2cc(F)c(N3CCN(C(=O)[C@H](C)NC(=O)c4cnccn4)CC3)cc21 | 2520 µM (≈ 1250 µg/mL) | 0.629 µM (≈ 0.312 µg/mL) | 1260 µM (≈ 625 µg/mL) | 2520 µM (≈ 1250 µg/mL)
O=C(NCC(=O)N1CCN(c2cc3c(cc2F)c(=O)c(C(=O)O)cn3C2CC2)CC1)c1cnccn1 | 2530 µM (≈ 1250 µg/mL) | 2.53 µM (≈ 1.25 µg/mL) | 2530 µM (≈ 1250 µg/mL) | 2530 µM (≈ 1250 µg/mL)
O=C(NCCC(=O)N1CCN(c2cc3c(cc2F)c(=O)c(C(=O)O)cn3C2CC2)CC1)c1cnccn1 | 2460 µM (≈ 1250 µg/mL) | 0.307 µM (≈ 0.156 µg/mL) | 614 µM (≈ 312 µg/mL) | 2460 µM (≈ 1250 µg/mL)
O=C(O)c1cn(C2CC2)c2cc(N3CCNCC3)c(F)cc2c1=O [CIPROFLOXACIN] | 7.2 µM (≈ 2.39 µg/mL) | 3.77 µM (≈ 1.25 µg/mL) | 3770 µM (≈ 1250 µg/mL) | 14.5 µM (≈ 4.8 µg/mL)
CCn1cc(C(=O)O)c(=O)c2cc(F)c(N3CCNCC3)cc21 [NORFLOXACIN] | 7.5 µM (≈ 2.4 µg/mL) | 3.91 µM (≈ 1.25 µg/mL) | 1960 µM (≈ 625 µg/mL) | 15 µM (≈ 4.79 µg/mL)
